# PubChem BioAssay AID602166 (The Scripps Research Institute Molecular Screening Center, 2012)
# pIC50: −log10 of the molar value. Active and inactive are the calls of the source. The rule behind the calls is not given here.
# Molecular target: Nuclear receptor coactivator 3 (Homo sapiens) (UniProt Q9Y6Q9)
# Assay: NCOA3 reporter inhibition potency – cell-based, luminescence, dose response (AID 602166);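 note: potency for reduction of SRC3 reporter signal so compounds are inhibitors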
# Details: SRC3 luciferase reporter cell assay
# Sequence of Nuclear receptor coactivator 3 (Homo sapiens) (Q9Y6Q9 whole entry, looked up): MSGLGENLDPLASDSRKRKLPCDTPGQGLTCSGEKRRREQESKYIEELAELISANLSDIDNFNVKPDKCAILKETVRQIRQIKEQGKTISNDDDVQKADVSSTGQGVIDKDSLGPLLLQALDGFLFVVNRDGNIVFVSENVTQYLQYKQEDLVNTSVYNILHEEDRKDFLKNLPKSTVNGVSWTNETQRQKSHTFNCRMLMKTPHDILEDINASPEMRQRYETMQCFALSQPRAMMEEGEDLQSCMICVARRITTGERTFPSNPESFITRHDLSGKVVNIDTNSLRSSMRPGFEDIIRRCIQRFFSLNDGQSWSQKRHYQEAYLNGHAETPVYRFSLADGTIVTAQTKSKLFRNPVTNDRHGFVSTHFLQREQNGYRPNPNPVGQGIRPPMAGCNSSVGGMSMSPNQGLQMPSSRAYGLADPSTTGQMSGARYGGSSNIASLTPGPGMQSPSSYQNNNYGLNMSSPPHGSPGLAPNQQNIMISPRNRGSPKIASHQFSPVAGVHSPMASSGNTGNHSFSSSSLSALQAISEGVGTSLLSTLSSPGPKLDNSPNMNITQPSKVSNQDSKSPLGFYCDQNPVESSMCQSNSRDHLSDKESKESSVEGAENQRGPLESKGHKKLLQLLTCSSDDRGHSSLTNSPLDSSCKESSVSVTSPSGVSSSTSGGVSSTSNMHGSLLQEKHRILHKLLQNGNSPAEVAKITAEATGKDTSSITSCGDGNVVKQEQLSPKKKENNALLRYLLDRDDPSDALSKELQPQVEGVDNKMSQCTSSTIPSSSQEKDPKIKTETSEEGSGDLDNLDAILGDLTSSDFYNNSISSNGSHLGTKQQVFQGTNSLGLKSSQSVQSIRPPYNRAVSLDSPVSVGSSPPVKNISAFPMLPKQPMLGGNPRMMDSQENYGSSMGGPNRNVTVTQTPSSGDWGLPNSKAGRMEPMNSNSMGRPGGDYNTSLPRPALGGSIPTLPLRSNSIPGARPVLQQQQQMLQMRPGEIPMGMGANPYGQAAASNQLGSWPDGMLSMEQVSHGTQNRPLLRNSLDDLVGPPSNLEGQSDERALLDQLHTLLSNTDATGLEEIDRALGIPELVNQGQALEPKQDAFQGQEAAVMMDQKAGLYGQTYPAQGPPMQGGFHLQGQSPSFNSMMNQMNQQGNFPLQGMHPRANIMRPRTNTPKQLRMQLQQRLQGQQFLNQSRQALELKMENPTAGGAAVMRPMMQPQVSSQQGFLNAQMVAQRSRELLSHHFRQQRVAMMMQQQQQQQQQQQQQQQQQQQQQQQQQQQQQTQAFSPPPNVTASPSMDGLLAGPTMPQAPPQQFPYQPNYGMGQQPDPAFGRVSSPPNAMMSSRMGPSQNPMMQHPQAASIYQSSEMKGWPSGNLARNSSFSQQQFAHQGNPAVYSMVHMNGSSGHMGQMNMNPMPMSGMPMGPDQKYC
SMILES,IC50,pIC50
O=C(NC(NC(=S)N1CCOCC1)C(Cl)(Cl)Cl)c1ccc(Cl)cc1 (stereo not drawn),> 35.9 µM (inactive),
O=C(c1ccncc1)N(Cc1cc2ccccc2[nH]c1=O)C1CCCCC1,,5.23
Cc1ccc(N=c2c([N+](=O)[O-])nn(-c3ccc4c(c3)OCCO4)n2O)cc1F,,5.07
CCOC(=O)C(C(C)=O)c1c(Br)c(O)c(O)c2c(C(=O)c3ccc(C)cc3)coc12 (stereo not drawn),,5.39
O=S(=O)(/C(=C\c1ccc(C(F)(F)F)cc1)c1nc2ccccc2[nH]1)c1ccccc1,> 12 µM (inactive),
Cc1ccc2occ(/C=N/NC(=O)[C@@H](N)Cc3ccccc3)c(=O)c2c1,,5.01
COC(=O)c1cccc2c1-c1ccccc1/C2=N/O,,5.63
C/C(=N\NC(=S)Nc1cc(S(=O)(=O)N2CCOCC2)ccc1Cl)c1ccccc1F,> 35.9 µM (inactive),
COc1ccc(C)cc1NS(=O)(=O)c1ccc(NC(=O)CN(c2cc([N+](=O)[O-])ccc2C)S(C)(=O)=O)cc1,inactive,
C=C1C(=O)[C@]23C[C@H]1CCC2[C@@]1(C)C(C[C@@H]3O)[C@](C)(C(=O)OC)CC[C@@H]1O (stereo partly drawn),,5.08
C=CS(=O)(=O)N(Cc1ccc(Cl)c(Cl)c1)C[C@@H](O)CO,,5.16
CN(C)c1ccc(C(=S)Nc2ccccc2)cc1,> 35.9 µM (inactive),
Nc1nc(=S)c2ncn([C@@H]3O[C@H](CO)[C@@H](O)[C@H]3O)c2[nH]1,,5.59
O=C(CNc1cccc([N+](=O)[O-])c1)N/N=C/c1ccc([N+](=O)[O-])o1,inactive,
O=c1[nH]cnc2c1nnn2C1OC(CO)C(O)C1O (stereo not drawn),,5.33
CN(C)c1ccc(CNC(=O)CCNS(=O)(=O)c2cc(Br)cnc2N)cc1,,5.36
COc1ccc(COC(=O)C2=C(C)NC(=O)NC2c2ccc(F)cc2)cc1 (stereo not drawn),,5.11
CCCS(=O)(=O)Nc1ccc(Nc2c3ccccc3nc3ccccc23)c(OC)c1,,6.22
Cc1cccc(C)c1NS(=O)(=O)c1ccc(-c2cnc(C3CC3)o2)cc1,inactive,
C=CC[n+]1c(-c2ccc(C)cc2)csc1Nc1ccc(NC(C)=O)cc1,> 35.9 µM (inactive),
CC(=O)c1ccc(Nc2c3c(nc4ccccc24)CCCC3)cc1,inactive,
c1csc(Cc2nn3c(-c4ccncc4)nnc3s2)c1,,5.09

SMILES,IC50,pIC50
CCOc1ccc(CC(=O)Nc2ccc(NC(=O)c3ccco3)cc2)cc1OCC,,5.37
Cc1ccc(C(=O)O/N=C(\N)c2ccccn2)c(Cl)c1,> 35.9 µM (inactive),
NC(=S)N/N=C1\CCSc2ccc(Cl)cc21,,5.40
O=C(N/N=C\c1ccc([N+](=O)[O-])o1)C1COc2ccccc2O1 (stereo not drawn),> 35.9 µM (inactive),
CC(C)(C)c1ccc(Oc2ccc(N)cn2)cc1,inactive,
CCOc1ccc(Nc2cc(C)nc(-n3nc(C)cc3C)n2)cc1,> 35.9 µM (inactive),
COc1cccc(-c2nnc3sc(C4CCCCC4)nn23)c1,,5.76
O=C(CCl)NC(Cc1ccccc1)c1ccccc1 (stereo not drawn),,5.25
NC(=S)N/N=C1\CCOc2ccc(Cl)cc21,,5.16
O=C(CCl)N(c1ccccc1)C1CCCCC1,,5.06
NNC(=O)c1cc2ccccc2cc1O,,5.13
O=C(N/N=C\c1ccc([N+](=O)[O-])s1)c1cncc(Br)c1,,5.26
O=[N+]([O-])c1nn(-c2ccc3c(c2)OCCO3)n(O)c1=Nc1ccccc1,,5.97
Cc1ccc(/C=C2\SC(=S)N(CCCC(=O)NC3CCCC3)C2=O)cc1,,5.75
Cc1ncc(CO)c(/C=N/NC(=O)c2cc3c(s2)CCCC3)c1O,,5.15
COc1ccc(/C=C2\CC/C(=C\c3ccc(OC)c(OC)c3)C2=O)cc1OC,,5.20
CCOC(=O)C(=CNc1ccc(NC2=NCC(C)S2)cc1)C(=O)OCC (stereo not drawn),,5.48
CCc1ccc(/C=C2\SC(=S)N(CCCC(=O)NCCCN3CCOCC3)C2=O)cc1,inactive,
COc1ccc(C(C(=O)NC2CCCCC2)N(C(=O)CCl)c2ccc(Cl)cc2)cc1 (stereo not drawn),,5.43
COc1cccc(F)c1C(C[N+](=O)[O-])c1c(N)n(C)c(=O)n(C)c1=O (stereo not drawn),inactive,
Nc1nc2c(nnn2C2CC(O)C(CO)O2)c(=O)[nH]1 (stereo not drawn),,5.10
CN(C)c1ccc(/C=C/c2ccc3ccccc3n2)cc1,,5.25

SMILES,IC50,pIC50
CN[C@H]1CCc2cc(OC)c(OC)c(OC)c2-c2ccc(OC)c(=O)cc21,> 35.9 µM (inactive),
O=C(Nc1ccccc1Oc1ccccc1)c1cc([N+](=O)[O-])ccc1Cl,,5.26
Cc1ccc2occ(/C=N/NC(=O)c3ccccc3Br)c(=O)c2c1,inactive,
CCOC(=O)CC(=O)CSc1nccc(-c2cccnc2)n1,inactive,
CN(C)S(=O)(=O)c1ccc(N2CCN(S(=O)(=O)c3ccc(F)cc3)CC2)c(Cl)c1,,5.10
Cc1c(CC(=O)NCCCC(=O)O)c(=O)oc2cc3c(cc12)CCC(C)(C)O3,,5.12
Cc1c(Cl)cccc1NC(=O)Nc1ccccc1C(N)=O,> 35.9 µM (inactive),
O=C(COC(=O)c1ccc[nH]c1=O)Nc1ccc(N2CCCCC2)cc1,,5.54
CC(=O)Nc1ccc(SCC(=O)c2cc(C)n(-c3ccccc3)c2C)cc1,> 35.9 µM (inactive),
COc1ccc(Nc2ccncc2[N+](=O)[O-])cc1,,5.27
O=C(OCCC12CC3CC(CC(C3)C1)C2)c1ccc(NCc2cc(O)ccc2O)cc1,,5.36
Cc1ccc(C(=O)Nc2cnc3ccccc3c2)cc1,inactive,
COc1cc2c(ccc3cc(OC)c(OC)c(O)c32)cc1O,inactive,
CCn1ccnc1CN(C)Cc1cn[nH]c1-c1ccc(OC)c(F)c1,,5.31
C(=N\Nc1nc2ccccc2[nH]1)/c1cccc2cccnc12,,5.04
COc1ccc2[nH]c(=O)c(CN(CCN3CCCC3)C(=O)Nc3ccccc3Cl)cc2c1,inactive,
O=C(NCCCn1ccnc1)c1ccc(N2CCCCCC2)c([N+](=O)[O-])c1,inactive,
Cc1cccc(CN2CCN(C(=O)CCl)CC2)c1,> 35.9 µM (inactive),
c1cc2[nH]snc2c2nc(C3CC3)nc12,,5.79
CC(=O)/C(N=Nc1ccc2c(c1)OCCO2)=C(\C)O,> 35.9 µM (inactive),
OCCN1CCN(C(=S)c2ccc(-c3ccccc3)cc2)CC1,,5.34
CCOc1ccc(-c2cc(C)n3nc(C(N)=O)cc3n2)cc1,,5.11

SMILES,IC50,pIC50
CCOc1ccc(/C=C2\SC(=S)N(CCCC(=O)NCCCN3CCOCC3)C2=O)cc1,inactive,
O=C(CCCc1nc(-c2ccccc2Cl)no1)NC1CCCC1,,5.09
Cc1c(/C(O)=C2/C(=O)C(=O)N(Cc3cccnc3)C2c2ccccn2)cnn1-c1ccccc1 (stereo not drawn),> 35.9 µM (inactive),
Nc1ccc(-c2cc3ccccc3oc2=O)cc1,,5.08
CCc1nc(N)nc(N)c1-c1ccc(Cl)c([N+](=O)[O-])c1,,5.37
Cc1cc(/C=C2\Cc3ccccc3C2=O)c(C)n1-c1ccccc1,> 35.9 µM (inactive),
O=C(NCCc1ccccc1)c1ccc2c(c1)OCCO2,,5.02
CCOc1ccc(/C=C2\SC(=S)N(CCC(=O)O)C2=O)cc1,> 35.9 µM (inactive),
CC(=O)c1cccc(-c2csc3ncnc(Sc4nnnn4C)c23)c1,inactive,
Cc1cccc(Oc2sc(C(=O)c3ccccc3)c(N)c2C#N)c1,,5.09
Brc1ccc2ncc3ccccc3c2c1,,5.10
NC(=O)c1sc2nc3c(c(-c4ccco4)c2c1N)CCC3,,5.95
CC(=O)OCCN1c2ccccc2Sc2cnccc21,,5.25
c1ccc(-c2noc(-c3ccc4ccccc4c3)n2)nc1,,5.06
C[C@@H](C(=O)Nc1ccc2c(c1)OCCO2)n1c(=O)[nH]c2ccccc2c1=O,> 35.9 µM (inactive),
Cc1cc(-c2nnc(SCC(=O)Nc3ccccc3C(F)(F)F)o2)c(C)n1-c1ccccc1,> 35.9 µM (inactive),
CC(C)(C)c1cc(C(=O)N/N=C/c2ccc(O)cc2)n(-c2ccccc2)n1,> 35.9 µM (inactive),
CNc1ncnc(Sc2nc(N)nc3nc[nH]c23)c1[N+](=O)[O-],,5.38
O=[N+]([O-])c1cccc2c1ccc1ncccc12,,5.09
Cc1nc(N)nc(N)c1-c1ccc(Cl)c(Cl)c1,,5.86
COc1cccc(NC(=O)CSc2nnc(-c3cc(C)n(-c4ccccc4)c3C)o2)c1,> 35.9 µM (inactive),
CO[C@@]12[C@@H]3N[C@@H]3CN1C1=C(C(=O)C(N)=C(C)C1=O)[C@@H]2COC(N)=O,> 35.8 µM (inactive),

SMILES,IC50,pIC50
Cc1ccc(N(CCC#N)C(=O)CCl)cc1C,,5.06
COCCNC(=O)c1cc(-c2ccccn2)nc2ccc(S(=O)(=O)N3CCC(C)CC3)cc12,> 35.9 µM (inactive),
O=C(CCl)Nc1cccc(-c2cnc3ccccc3n2)c1,inactive,
CS(=O)c1nc(-c2ccc(Br)cc2)cc(-c2ccccc2)c1C#N (stereo not drawn),inactive,
O=c1[nH]c2ccccc2n1C1CCN(C(c2ccccc2)c2nnnn2-c2ccc3c(c2)OCCO3)CC1 (stereo not drawn),inactive,
CCc1ccc(-c2nc(CSCC(=O)NCc3ccco3)c(C)o2)cc1,> 35.9 µM (inactive),
Nc1nccc(-c2ccc(-n3cnc4ccccc43)cc2)n1,,5.72
CN1C(=O)C2(C(C#N)=C(N)N(c3cc(Cl)cc(Cl)c3)C3=C2C(=O)CCC3)c2ccccc21 (stereo not drawn),,5.58
COc1ccc(-c2nsc3c(N4CCCCC4)ncnc23)cc1,> 35.9 µM (inactive),
Cc1cc(C(=O)COC(=O)C2=COCCO2)c(C)n1-c1ccccc1,> 35.9 µM (inactive),
O=C(Nc1ccc(OCC(=O)N2CCOCC2)cc1)c1cncc(Br)c1,,5.35
Cc1nc(N2CCC(C(N)=O)CC2)c2c(-c3cccs3)csc2n1,,5.16
CN1CCN(c2ccc(NC(=O)N3CCc4ccccc43)cc2)CC1,> 35.9 µM (inactive),
CC(=O)Nc1ccc(SCC(=O)c2cc(C)n(-c3ccccc3F)c2C)cc1,> 35.9 µM (inactive),
CNC(=O)c1cccn(Cc2ccc(C(F)(F)F)cc2)c1=O,> 35.8 µM (inactive),
Fc1ccccc1-c1csc(=Nc2cccnc2)n1CCCn1ccnc1,,5.28
Cc1cc2nccc(-c3ccncc3)n2n1,inactive,
Cc1ccc(NC(=O)c2cc(C)n(-c3ccccc3)c2C)cc1,> 35.9 µM (inactive),
COc1ccc(/C=C2/SC(=S)N(CCC(=O)O)C2=O)cc1,> 35.9 µM (inactive),
Cn1cnc([N+](=O)[O-])c1Sc1nc(N)nc2c1ncn2C1OC(CO)C(O)C1O (stereo not drawn),,5.20
